Measured values reported in article PMC8201677, “Calycosin-loaded nanoliposomes as potential nanoplatforms for treatment of diabetic nephropathy through regulation of mitochondrial respiratory function” (Journal of Nanobiotechnology, 2021).

Key:
[1] = Pharmacokinetics in rats after oral administration; format: in vivo; conditions: male, Sprague-Dawley, rat, single dose 30 mg/kg calycosin, plasma
Experimental: […] male Sprague–Dawley rats were randomly divided into three groups ([…]) as control, treated with calycosin, and treated with calycosin-loaded nanoliposomes (dissolved in 1% ethanol). The doses of calycoin groups were 30 mg/kg for oral administration. After the rats were intragastrically administered with free or Nano-formulated calycosin, the 0.5 mL blood was taken from the fundus venous plexus of each rat at different time intervals. The blood samples were then centrifuged (4000 rpm, 10 min), and the plasma was removed and to stored − 80 °C. The content of the drug in the plasma sample was then calculated by the established LC-MS/MS method based on the previous report.

[2] = system: mitochondria in kidney cells of diabetic rats; assay: MTT assay of mitochondrial viability in diabetic rats; format: in vivo, Sprague–Dawley rats; conditions: streptozotocin diabetic rats, treated 4 weeks
Experimental: (§1) Diabetes was induced in mice by injecting streptozotocin purchased from Sigma (USA). Streptozotocin was dissolved in a citrate buffer (pH 6.5, 0.1 M) and injected at a dose of 65 mg/kg intraperitoneally. Blood glucose was measured before the test and one week after streptozotocin injection, and mice with blood glucose above […] were considered diabetic. The calycosin or calycosin-loaded nanoliposomes were dissolved in PBS until it was ready to be injected, and the mice received […] of calycosin-loaded nanoliposomes for 4 weeks after becoming diabetic. Vitamin E (100 mg/kg) was also used as a positive control group. Animals were randomly divided in 5 groups which each group consisted of 6 male mice. […] Protein concentration was measured as standard using bovine serum albumin (BSA). […] 100 µl of mitochondrial supernatants were mixed by MTT stock solution (5 mg mL^−1) for 4 h, followed by removing the supernatants, addition of 150 μL DMSO for 5 min, and reading the absorbance of the samples at 570 nm using a microplate reader (BIO-RAD microplate reader-550).

[3] = system: mitochondria in kidney cells of diabetic rats; assay: ROS measurement by DCFH-DA assay in diabetic rats; format: in vivo, Sprague–Dawley rats; conditions: streptozotocin diabetic rats, treated 4 weeks
Experimental: as §1, with “Then,” for “100 µl of mitochondrial supernatants were mixed by MTT stock solution (5 mg mL^−1) for 4 h, followed by removing”, “fluorescence intensity” for “supernatants, addition of 150 μL DMSO for 5 min, and reading the absorbance”, “samples was read” for “samples”, “λex/λem of 485 nm/530” for “570”, “spectrofluorometer (CLARIOstar, Offenburg, Germany).” for “microplate reader (BIO-RAD microplate reader-550).”

[4] = Dissolution study in PBS pH 7.4; format: physicochemical
Experimental: The dissolution studies were performed based on the previous study. Briefly, the dissolution medium (pH 7.4, PBS, 900 ml) under stirring (100 rpm) was added by calycosin-loaded nanoliposomes which is equivalent to 50 mg of drug and at different time intervals, 15 mL samples were removed, replaced, filtrated ([…]), and dissolved in mixed solvent (methanol: distilled water = 5.5:3.5, v/v). Finally, 25 µl of the sample was injected into a HPLC system. The rest of the setup was similar to the above-mentioned explanations.

[5] = system: mitochondria in kidney cells of diabetic rats; assay: Lipid peroxidation (MDA) by TBARS analysis in diabetic rats; format: in vivo, Sprague–Dawley rats; conditions: streptozotocin diabetic rats, treated 4 weeks
[6] = In vitro drug release in dialysis media (simulated gastric, intestinal and physiological fluid); format: physicochemical
Experimental: The EE and DL of the prepared calycosin-loaded nanoliposomes were determined by the dialysis method described previously. Briefly, 700 μL of the prepared calycosin-loaded nanoliposomes solution was added into a dialysis bag (cutoff of 8000), followed by putting into 20 mL of dialysis medium (PBS, pH 7.4). The samples were then shacked (10 h), and centrifuged (3000 rpm, 2 min) to determine the free calycosin concentration in the supernatant. Also, 500 µL of the calycosin-loaded nanoliposomes were added by 1500 μL of methanol, vortexed ([…]), sonicated (5 min), centrifuged (3000 rpm, 2 min) to calculate the total calycosin concentration (C0). 20 mL of the prepared calycosin-loaded nanoliposomes powder (V0) was weighted to calculate the solid powder mass (W0). 25 µl of the sample was injected into a HPLC system containing Phenomenex ODS analytical column (150 mm × 4.6 mm, 5 μm) with a guard column (30 mm × 10 mm, 3 μm) at 40 °C. The mobile phase was a mixture of methanol: double distilled water as follows:0.05 M KH2PO4 = 40:60:5, pH 4.0, with a flow rate of 1.0 ml/min [37]. The simulated gastric fluid was 0.1 mol/L HCl (100 mM, pH 1.2) supplemented with 0.5% Tween-80, the simulated intestinal fluid was PBS buffer (25 mM, pH 6.9) containing 0.5% Tween-80, and the simulated physiological buffer was PBS (150 mM, pH 7.4) containing 0.5% Tween-80. The cumulative drug release was then determined using the following equation [35]: Cumulative release rate%=[V1×(C1⋯+Ci1)+V2×Ci]/Vo×Co×100 where, V1 is the sampling amount, V2 is the volume of the dialysis medium, C1–Ci is the concentration of calycosin at each time point, and V0 and C0 are the volume and concentration of calycosin-loaded nanoliposomes added to the dialysis bag. Stability of calycosin-loaded nanoliposomes was explored for about two months at 37 °C by using particle size and encapsulation efficiency of the reconstituted nanoliposome.

AUC(0-inf) [1]: 421 ± 73.3 ng·h/mL
AUC(0-t) [1]: 409 ± 67.3 ng·h/mL
Cmax [1]: 298 ± 35.8 ng/mL
Tmax [1]: 11.4 ± 1.02 min
half-life [1]: 419 ± 57.6 min
MRT last ([1]; read-out: MRT0−t): 8.68 ± 1.27 h
dissolution rate [4]: low
time of (almost) complete / 100% release ([6]; simulated gastric medium pH 1.2): ~20 h
cumulative release ([6]; simulated gastric medium pH 1.2, 1 h): about 32%
time of (almost) complete / 100% release ([6]; simulated intestinal fluid pH 6.9): ~100 h
cumulative release ([6]; simulated intestinal fluid pH 6.9, 1 h): about 32%
cumulative release ([6]; simulated intestinal fluid pH 6.9, 20 h): 90%
time of (almost) complete / 100% release ([6]; simulated physiological fluid pH 7.4): ~120 h
cumulative release ([6]; simulated physiological fluid pH 7.4, 1 h): about 7%
cumulative release ([6]; simulated physiological fluid pH 7.4, 20 h): 55%
SMILES: COc1ccc(-c2coc3cc(O)ccc3c2=O)cc1O [calycosin]
mitochondrial viability (MTT) in comparison with diabetic rats [2]: significant recovery of mitochondrial viability
generation of ROS (DCF fluorescence intensity) [3]: potentially reduced the generation of ROS
MDA level (lipid peroxidation) [5]: remarkable decrease in lipid peroxidation
